# Laboratory results: patent US20250144067A1, “PERSONALIZED STARVATION THERAPY FOR CANCER” (Faeth Therapeutics, Inc., priority 2021, published 2025)
# Counter-ions that a name gives are not always drawn.
# What was measured:
# [1] = tested on: NCI-H292 lung cancer cells; assay: FDA drug screening, complete media vs cholesterol-free media without statin (TABLE 1); type: cell-based, human
# [2] = tested on: NCI-H292 lung cancer cells; assay: FDA drug screening, complete media vs cholesterol-free media with simvastatin (TABLE 2); type: cell-based, human; conditions: for Cholesterol-free media + simvastatin (0.04 μM) / Complete Media: NCI-H292 cells
# [3] = Complete minus Cholesterol-free; greater than 0 enhanced anti-cancer activity, about 0 neutral, below 0 antagonist
# [4] = NCI-H292 cells, FDA drug library screen, cholesterol-free media without statin
# [5] = NCI-H292 cells, FDA drug library screen, complete media
# [6] = FDA drug library screen, cholesterol-free media with simvastatin 0.04 μM
# [7] = FDA drug library screen, complete media
# [8] = complete media vs cholesterol-free media + simvastatin (0.04 μM), >0 enhanced anti-cancer activity, about 0 neutral, <0 antagonist
# [9] = NCI-H292 cells, cholesterol-free media without statin, FDA drug library screen
# [10] = NCI-H292 cells, complete media, FDA drug library screen
# [11] = complete vs cholesterol-free media; […]
# [12] = FDA library drug in cholesterol-free media with simvastatin 0.04 μM
# [13] = FDA library drug in complete media
# [14] = complete media vs cholesterol-free media + simvastatin (0.04 μM), […]
# [15] = Complete minus Cholesterol-free; >0 enhanced anti-cancer activity, about 0 neutral, <0 antagonist
# [16] = complete media minus cholesterol-free media + simvastatin, >0 enhanced anti-cancer activity, about 0 neutral, <0 antagonist
# [17] = complete vs cholesterol-free media; >0 enhanced anti-cancer activity, about 0 neutral, <0 antagonist
# [18] = NCI-H292 cells, cholesterol-free media without statin
# [19] = drug in cholesterol-free media with simvastatin 0.04 μM
# [20] = cholesterol-free media with simvastatin 0.04 μM, […]
# [21] = complete media minus cholesterol-free media + simvastatin, […]
# [22] = Complete minus Cholesterol-free; […]
# [23] = cholesterol-free media with simvastatin 0.04 μM, FDA drug library screen (TABLE 2)
# [24] = complete media, FDA drug library screen (TABLE 2)
# [25] = complete vs cholesterol-free media; greater than 0 enhanced anti-cancer activity, about 0 neutral, below 0 antagonists
SMILES,"Cholesterol-free media + simvastatin (0.04 μM) [2, 6]","Complete Media [2, 7]","Difference [2, 8]","Cholesterol-free [1, 9]","Complete [1, 10]","Cholesterol-free [1, 18]","Complete ([1]; NCI-H292 cells, complete media)",also measured
CC1=C(C(=O)OCCN(Cc2ccccc2)c2ccccc2)C(c2cccc([N+](=O)[O-])c2)C(P2(=O)OCC(C)(C)CO2)=C(C)N1.CCO.Cl (centres unmarked),1.113,1.012,−0.10,–,–,–,–,"Difference [1, 3]: −0.15; Cholesterol-free [1, 4]: 0.9837; Complete [1, 5]: 0.8325"
CN1C(=O)CCS(=O)(=O)C1c1ccc(Cl)cc1 (centres unmarked) [Chlormezanone],–,–,–,0.6871,0.9881,–,–,"Difference [1, 11]: 0.30; Cholesterol-free media + simvastatin (0.04 μM) [2, 12]: 1.449; Complete Media [2, 13]: 1.114; Difference [2, 14]: −0.34"
Cc1[nH]c(=O)c(C#N)cc1-c1ccncc1 [Milrinone],1.16,1.825,–,0.9793,0.9407,–,–,"Difference [1, 15]: −0.04; Difference [2, 16]: 0.66"
CC(O)Cn1cnc2c1c(=O)n(C)c(=O)n2C (centres unmarked) [Proxyphylline],–,–,−0.26,0.7713,1.327,–,–,"Difference [1, 17]: 0.56; Cholesterol-free media + simvastatin (0.04 μM) [2, 12]: 1.208; Complete Media [2, 13]: 0.9431"
CC(=O)c1c(C)c2cnc(Nc3ccc(N4CCNCC4)cn3)nc2n(C2CCCC2)c1=O [Palbociclib (hydrochloride)],–,–,−0.22,–,–,1.289,1.028,"Difference [1, 15]: −0.26; Cholesterol-free media + simvastatin (0.04 μM) [2, 19]: 1.037; Complete Media ([2]; drug in complete media): 0.8185"
CCCCCCCCC(=O)NCc1ccc(O)c(OC)c1 [Nonivamide],–,–,–,–,–,–,1.201,"Difference [1, 11]: −0.42; Cholesterol-free media + simvastatin (0.04 μM) [2, 20]: 1.059; Complete Media ([2]; complete media, […]): 1.139; Difference [2, 21]: 0.08"
CC(=O)O[C@H]1[C@H]2O[C@]23[C@@H]2CC[C@]4(O)C[C@@H](O)CC[C@]4(C)[C@H]2CC[C@]3(C)[C@H]1c1ccc(=O)oc1 [Cinobufotalin],–,–,–,0.003242,−0.03407,–,–,"Difference [1, 22]: −0.04; Cholesterol-free media + simvastatin (0.04 μM) [2, 23]: 0.03115; Complete Media [2, 24]: 0.01046; Difference ([2]; complete media minus cholesterol-free media + simvastatin (0.04 μM), […]): −0.02"
C[N+]1(C)[C@@H]2CC[C@H]1C[C@@H](OC(=O)C(O)c1ccccc1)C2.[Br-] (some centres unmarked) [Homatropine (methylbromide)],–,–,–,–,–,1.269,1.05,"Difference [1, 22]: −0.22; Cholesterol-free media + simvastatin (0.04 μM) [2, 12]: 1.302; Complete Media [2, 13]: 0.9164; Difference [2, 14]: −0.39"
COc1ccc2cc([C@H](C)C(=O)O)ccc2c1 [Naproxen (sodium)],1.198,1.058,−0.14,–,–,1.162,0.8469,"Difference [1, 25]: −0.32"
CCOc1ccccc1OC(c1ccccc1)C1CNCCO1.CS(=O)(=O)O (centres unmarked) [Reboxetine (mesylate)],0.8624,0.7048,–,1.105,1.321,–,–,"Difference [1, 11]: 0.22; Difference [2, 14]: −0.16"
Cc1cc(C2CCCCC2)n(O)c(=O)c1 [Ciclopirox],0.2219,0.6804,–,–,–,–,–,"Difference [1, 3]: −0.10; Cholesterol-free [1, 4]: 0.2725; Complete [1, 5]: 0.1741; Difference [2, 16]: 0.46"
COc1ccc(C2C(=O)c3ccccc3C2=O)cc1 [Anisindione],1.296,1.617,–,0.8915,1.35,–,–,"Difference [1, 17]: 0.46; Difference [2, 16]: 0.32"
Nc1ncn([C@H]2C[C@H](O)[C@@H](CO)O2)c(=O)n1 [Decitabine],–,–,–,–,–,0.8074,0.559,"Difference [1, 15]: −0.25; Cholesterol-free media + simvastatin (0.04 μM) ([2]; cholesterol-free media with simvastatin 0.04 μM, cell growth value in FDA drug screen): 0.7335; Complete Media ([2]; complete media, cell growth value in FDA drug screen): 0.7733; Difference [2, 16]: 0.04"
CC(c1cc2ccccc2s1)N(O)C(N)=O (centres unmarked) [Zileuton],–,–,−0.24,–,–,1.451,1.238,"Difference [1, 15]: −0.21; Cholesterol-free media + simvastatin (0.04 μM) [2, 19]: 1.302; Complete Media ([2]; drug in complete media): 1.066"
CCCC(=O)O[C@]1(C(=O)CCl)[C@H](C)C[C@@H]2[C@@H]3CCC4=CC(=O)C=C[C@]4(C)[C@]3(F)C(=O)C[C@@]21C [Clobetasone butyrate],–,–,–,–,–,–,–,"Difference [1, 22]: −0.18; Cholesterol-free [1, 4]: 0.6832; Complete [1, 5]: 0.5004; Cholesterol-free media + simvastatin (0.04 μM) [2, 20]: 0.5437; Complete Media ([2]; complete media, […]): 0.5699; Difference [2, 21]: 0.03"
N[C@@H]1c2cccnc2[C@H](OC(=O)N2CCC(n3c(=O)[nH]c4ncccc43)CC2)CC[C@H]1c1cccc(F)c1F [Rimegepant],–,–,−0.20,–,–,1.457,0.9844,"Difference [1, 25]: −0.47; Cholesterol-free media + simvastatin (0.04 μM) [2, 19]: 1.311; Complete Media ([2]; drug in complete media): 1.114"
O=C(O)c1cc2ccccc2c(Cc2c(O)c(C(=O)O)cc3ccccc23)c1O.OCCOCCN1CCN(C(c2ccccc2)c2ccc(Cl)cc2)CC1 [Hydroxyzine (pamoate)],1.16,1.053,−0.11,0.6403,0.9622,–,–,"Difference [1, 17]: 0.32"
C=CCc1cc(OC)c(O)c(C(=O)NCCO)c1 [Alibendol],0.9518,0.8774,−0.07,–,–,1.047,0.797,"Difference [1, 15]: −0.25"
NC(=O)OC[C@H](N)Cc1ccccc1 [Solriamfetol],–,–,–,1.006,0.9654,–,–,"Difference [1, 22]: −0.04; Cholesterol-free media + simvastatin (0.04 μM) [2, 12]: 1.23; Complete Media [2, 13]: 0.8852; Difference [2, 14]: −0.34"
COc1cc(NS(C)(=O)=O)ccc1Nc1c2ccccc2nc2ccccc12 [Amsacrine],–,–,–,–,–,0.3482,0.1517,"Difference [1, 15]: −0.20; Cholesterol-free media + simvastatin (0.04 μM) [2, 23]: 0.3844; Complete Media [2, 24]: 0.346; Difference ([2]; complete media minus cholesterol-free media + simvastatin (0.04 μM), >0 enhanced anti-cancer activity, about 0 neutral, <0 antagonist): −0.04"
Cc1cc(=O)oc2cc(O)ccc12 [4-Methylumbelliferone],1.129,1.057,−0.07,0.6739,1.119,–,–,"Difference [1, 17]: 0.45"
C=C[C@@H]1C[C@]1(NC(=O)[C@@H]1C[C@@H]2CN1C(=O)[C@H](C(C)(C)C)NC(=O)O[C@@H]1C[C@H]1CCCCCc1nc3ccc(OC)cc3nc1O2)C(=O)[N-]S(=O)(=O)C1CC1.[K+] [Grazoprevir potassium salt],1.46,1.827,–,1.089,1.03,–,–,"Difference [1, 22]: −0.06; Difference [2, 21]: 0.37"
